Results as given in patent US8404683B2, “Inhibitors of the interaction between MDM2 and P53” (Janssen Pharmaceutical N.V., priority 2004, dated 2013).
Where a name gives a salt, the structure may show the parent alone.

test system: U87MG cells; experiment: Proliferation assay (MTT-based) on U87MG tumour cells; settings: Homo sapiens, U-87 MG, 96 h, 4 days of incubation, negative log value of the IC50-value, read-out: cell proliferation pIC50 (converted)
Procedure, shortened: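 Human glioblastoma U87MG cells (wild-type p53) exposed to compound for 4 days at ≤0.1% DMSO, then MTT added for 2 h at 37 °C and absorbance read at 540 nm. Growth expressed as % of untreated control; IC50 by probit analysis, reported as pIC50.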

Question: Which IC50 does the source give for `c1ccc2c(CCNc3ccc(Nc4ccnc(-c5nnn[nH]5)c4)cc3)c[nH]c2c1` [Compound 87] here?
Answer: Its IC50 is over 10 µM.

Question: Which IC50 does the source give for `O=C(CCc1c[nH]c2ccccc12)Nc1ccc(Nc2ccncc2)cc1` [Compound 8] here?
Answer: The IC50 was 5.01 µM.

Question: With `N#Cc1ccc2[nH]cc(C(O)C(=O)Nc3ccc(Nc4ccncc4)cc3)c2c1` (centres unmarked) [Compound 113] as the compound, how does the IC50 read?
Answer: Its IC50 is over 10 µM.

Question: For `OC1CCCc2c(Nc3ccc(NCCc4c[nH]c5ccccc45)cc3)ccnc21` (centres unmarked) [Compound 111], which IC50 is on record?
Answer: Its IC50 is 0.0794 µM.

Question: With `COc1ccc2c(CNc3ccc(Nc4ccncc4)cc3)c[nH]c2c1` [Compound 7] as the compound, how does the IC50 read?
Answer: The IC50 was 2 µM.

Question: For `c1ccc2c(CCNc3ccc(CNc4ccncc4)cc3)c[nH]c2c1` [Compound 11], which IC50 is on record?
Answer: The IC50 was 5.01 µM.

Question: For `CCOc1cc(Nc2ccnc3c2CCC3O)ccc1NCCc1c[nH]c2cc(OC)ccc12` (centres unmarked) [Compound 112], which IC50 is on record?
Answer: The IC50 was 0.0316 µM.

Question: With `O=c1cc(Nc2ccc(NCCc3c[nH]c4ccccc34)cc2)c2ccccc2[nH]1` [Compound 3] as the compound, how does the IC50 read?
Answer: The IC50 was 5.01 µM.

Question: Which IC50 does the source give for `c1ccc2c(CCNc3ccc(Nc4ncnc5[nH]ccc45)cc3)c[nH]c2c1` [Compound 117] here?
Answer: Its IC50 is over 10 µM.

test system: not given; experiment: not given; settings: not given

Question: Which melting point does the source give for `c1ccc2c(CCNc3ccc(Nc4ccnc(-c5nnn[nH]5)c4)cc3)c[nH]c2c1` [Compound 87] here?
Answer: Its melting point is 210 °C.

Question: For `O=C(CCc1c[nH]c2ccccc12)Nc1ccc(Nc2ccncc2)cc1` [Compound 8], which melting point is on record?
Answer: The melting point was 208 °C.

Question: Which melting point does the source give for `N#Cc1ccc2[nH]cc(C(O)C(=O)Nc3ccc(Nc4ccncc4)cc3)c2c1` (centres unmarked) [Compound 113] here?
Answer: The melting point was 154 °C.

Question: Which melting point does the source give for `OC1CCCc2c(Nc3ccc(NCCc4c[nH]c5ccccc45)cc3)ccnc21` (centres unmarked) [Compound 111] here?
Answer: Its melting point is 104 °C.

Question: Which melting point does the source give for `COc1ccc2c(CNc3ccc(Nc4ccncc4)cc3)c[nH]c2c1` [Compound 7] here?
Answer: Its melting point is 145 °C.

Question: With `c1ccc2c(Nc3ccc(NCCc4c[nH]c5ccccc45)cc3)ccnc2c1` (as salt: HCl) [Compound 1] as the compound, how does the melting point read?
Answer: Its melting point is 170 °C.

Question: Which melting point does the source give for `c1ccc2c(CCNc3ccc(CNc4ccncc4)cc3)c[nH]c2c1` [Compound 11] here?
Answer: The melting point was 122 °C.

Question: Which melting point does the source give for `CCOc1cc(Nc2ccnc3c2CCC3O)ccc1NCCc1c[nH]c2cc(OC)ccc12` (centres unmarked) [Compound 112] here?
Answer: Its melting point is 194 °C.

Question: Which melting point does the source give for `O=c1cc(Nc2ccc(NCCc3c[nH]c4ccccc34)cc2)c2ccccc2[nH]1` [Compound 3] here?
Answer: Its melting point is 238 °C.

Question: For `c1ccc2c(CCNc3ccc(Nc4ncnc5[nH]ccc45)cc3)c[nH]c2c1` [Compound 117], which melting point is on record?
Answer: Its melting point is 211 °C.

Question: With `c1ccc(Cc2noc(-c3cc(Nc4ccc(NCCc5c[nH]c6ccccc56)cc4)ccn3)n2)cc1` [Compound 108] as the compound, how does the melting point read?
Answer: Its melting point is 159 to 161 °C.
